{"source": "patent US20200100505A1", "about": "“MICROBIAL INSECTICIDE FOR CONTROL OF MULBERRY THRIPS” (FARMHANNONG CO., LTD., priority 2017, published 2020)", "system": "Western flower thrips", "assay": "Insecticidal effect against thrips on caged potted tomato crop", "type": "in vivo", "conditions": "tomato pot in cage, granules 2 g per pot, clothianidin 0.02 g per pot", "method": "An experiment on the insecticidal effect against thrips was carried out in a tomato crop. A population of the tomato crop having a height of 20 to 25 cm was used, and the tomato crop was put into a plastic cage (30×30×60 cm^3) equipped with a sieve with mesh smaller than that of Western flower thrips to prevent Western flower thrips from moving from a treatment zone, and an experiment was then performed.\nA pot in which a tomato crop was planted, was treated with 2 g of the microbial insecticide granules of the present invention prepared in Example 1. Also, as the comparison group, the tomato crop was treated with an agricultural chemical (i.e., clothianidin) known to show a potent insecticidal effect against thrips at an amount of 0.02 g (i.e., an amount of 3 kg/10 a) per pot, and no insecticide was applied to the pot of the control group."}
{"compound": "CN/C(=N\\[N+](=O)[O-])NCc1cnc(Cl)s1", "note": "[clothianidin]", "values": [{"measurement": "Thrips density After 20 days", "setting": "after 20 days", "result": "3.7 ± 0.5", "unit": "number/plant"}, {"measurement": "Thrips density After 40 days", "setting": "after 40 days", "result": "2.4 ± 0.4", "unit": "number/plant"}]}
